Read-outs that look alike come from different tables or passages of the source.
Legend:
[1] = background statement; cited from earlier work
[2] = clinical trials, cited from earlier work
[3] = test system: ErbB2 protein; test: ErbB2 protein expression in glioma cells; assay type: cell-based
[4] = test system: ErbB2 protein; test: ErbB2 protein expression in SKBr3 cells; assay type: cell-based, human
[5] = test system: SKBr cells (human breast cancer cells); test: Cell viability (MTS) drug combination assay, combination index, SKBr-3 cells; assay type: cell-based; settings: combination with 17-AAG, CI<1 synergism
Protocol: Human colon adenocarcinoma cell line, DLD-1, and human breast adenocarcinoma cell line, SKBr-3, were obtained from American Type Culture Collection (manassas, VA). […] Other cytotoxic agents were purchased commercially from suppliers such as Sigma Chemical Co. (St. Louis, Mo.) and Sequoia Research Products (Oxford, UK). Cells were seeded in duplicate in 96-well microtiter plates at a density of 5,000 cells per well and allowed to attach overnight. […] Cell viability was determined using the MTS assay (Promega). […] Based on the IC50 values of each individual drug, combined drug treatment was designed at constant ratios of two drugs, i.e., equivalent to the ratio of their IC50. […] The drug was then added to the cells and incubated for 48 hours. […] Cell viability was determined by the MTS assay. Synergism, additivity or antagonism was determined by median effect analysis using the combination index (CI) calculated using Calcusyn (Biosoft, Cambridge, UK). […] The quantities [Dx]1 and [Dx]2 represent the concentrations of the first and second drug, respectively, that when used alone provide a response of x % in the assay. […] The “enhancing” effect of two drugs can also be determined.

[6] = test system: DLD-1 cells (human colorectal cancer cells); test: Cell viability (MTS) drug combination assay, combination index, DLD-1 cells; assay type: cell-based; settings: combination with 17-AAG, CI<1 synergism
Protocol: Human colon adenocarcinoma cell line, DLD-1, and human breast adenocarcinoma cell line, SKBr-3, were obtained from American Type Culture Collection (manassas, VA). […] Other cytotoxic agents were purchased commercially from suppliers such as Sigma Chemical Co. (St. Louis, Mo.) and Sequoia Research Products (Oxford, UK). Cells were seeded in duplicate in 96-well microtiter plates at a density of 5,000 cells per well and allowed to attach overnight. […] Cell viability was determined using the MTS assay (Promega). […] Based on the IC50 values of each individual drug, combined drug treatment was designed at constant ratios of two drugs, i.e., equivalent to the ratio of their IC50. Two treatment schedules were used: In one schedule, the cells were exposed to 24 hours of 17-AAG or 17-DMAG. The drug was then added to the cells and incubated for 48 hours. […] Cell viability was determined by the MTS assay. Synergism, additivity or antagonism was determined by median effect analysis using the combination index (CI) calculated using Calcusyn (Biosoft, Cambridge, UK). […] The quantities [Dx]1 and [Dx]2 represent the concentrations of the first and second drug, respectively, that when used alone provide a response of x % in the assay. […] The “enhancing” effect of two drugs can also be determined.

[7] = 17-AAG Post-Administration (platinum complex 24 h, then 17-AAG 48 h)

17-(allylamino)-17-desmethoxygeldanamycin [17-AAG]
hepatotoxicity [1]: reduced hepatotoxicity | MTD ([2]; daily x 5 schedule): about 40 mg/m^2 | MTD ([2]; once-weekly regimen): about 308 mg/m^2 | MTD ([2]; twice-weekly regimen): about 220 mg/m^2 | expression of ErbB2 protein [3]: reduced the expression of ErbB2 protein | expression of ErbB2 protein [4]: reduced the expression of ErbB2 protein

CO[C@H]1/C=C\C=C(/C)C(=O)NC2=CC(=O)C(NCCN(C)C)=C(C[C@@H](C)C[C@H](OC)[C@H](O)[C@@H](C)/C=C(\C)[C@@H]1OC(N)=O)C2=O [17-DMAG, 17-(2-dimethylaminoethyl)amino-17-desmethoxygeldanamycin]
expression of ErbB2 protein [3]: reduced the expression of ErbB2 protein | expression of ErbB2 protein [4]: reduced the expression of ErbB2 protein

N.N.[Cl][Pt][Cl] [Cisplatin, cisplatin]
CI value (combination index) [5, 7]: Enhancement | CI value (combination index) ([5]; 17-AAG Pre-Administration (17-AAG 24 h, then platinum complex 48 h)): No Effect | CI value (combination index) [6, 7]: No Effect | CI value (combination index) ([6]; 17-AAG Pre-Administration (17-AAG 24 h, then platinum complex 48 h), CI=1 additivity, CI>1 antagonism): No Effect

COC1=C2C[C@@H](C)C[C@H](OC)[C@H](O)[C@@H](C)/C=C(\C)[C@H](OC(N)=O)[C@@H](OC)/C=C\C=C(/C)C(=O)NC(=CC1=O)C2=O [geldanamycin, Geldanamycin]
hepatotoxicity [1]: unacceptable hepatotoxicity

— US20050020556A1, “Method for treating diseases using HSP90-inhibiting agents in combination with platinum coordination complexes” (Kosan Biosciences, Inc., priority 2003, published 2005)
